By pIC50 is commonly meant the negative decadic logarithm of the IC50, by convention in mol/L. The low end stands for a high IC50, the high end for a low IC50.

Results on 20 molecules are retold here after US11312719B2, “9-substituted amino triazolo quinazoline derivatives as adenosine receptor antagonists, pharmaceutical compositions and their use” (Merck Sharp & Dohme Corp., priority 2018, dated 2022).

SMILES strings stand for the structures. pIC50: −log10 of the molar value.

One assay deals with human A2A receptors (Homo sapiens (Human), UniProt P29274). The assay can be described thus: A2A antagonism in cAMP cell-based assay (LANCE cAMP, HEK293). Conditions: HEK293 cells expressing human A2A receptor. In short, it runs like this:
(§1)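 HEK293 cells expressing human A2A or A2B, in HBSS/5 mM HEPES/200 nM rolipram, were preincubated with compound (0.5–10,000 nM, 0.25% DMSO) 30 min at 37° C. Adenosine was then added from 300 nM (A2A) or 600 nM (A2B) solution for 30 min.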
On the technique in general: In TR-FRET formats the signal depends on donor and acceptor labels being close together.

The next assay concerns the target human A2B receptors (Homo sapiens (Human), UniProt P29275). Briefly: A2B antagonism in cAMP cell-based assay (LANCE cAMP, HEK293). Conditions: HEK293 cells expressing human A2B receptor; for A2B cAMP % Inh. @10000 nM: at 10000 nM. In short, it runs like this: as §1

human A2B receptors, sequence (P29275 whole entry): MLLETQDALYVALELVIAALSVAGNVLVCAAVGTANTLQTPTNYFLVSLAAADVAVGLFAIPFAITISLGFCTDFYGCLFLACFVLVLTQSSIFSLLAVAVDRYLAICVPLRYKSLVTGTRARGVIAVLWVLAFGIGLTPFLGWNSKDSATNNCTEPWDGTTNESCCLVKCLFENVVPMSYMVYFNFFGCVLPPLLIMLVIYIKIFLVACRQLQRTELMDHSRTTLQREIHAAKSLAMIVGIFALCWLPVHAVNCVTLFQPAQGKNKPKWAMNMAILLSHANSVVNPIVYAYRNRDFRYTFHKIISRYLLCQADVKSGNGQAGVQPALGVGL
human A2A receptors, sequence (P29274 whole entry): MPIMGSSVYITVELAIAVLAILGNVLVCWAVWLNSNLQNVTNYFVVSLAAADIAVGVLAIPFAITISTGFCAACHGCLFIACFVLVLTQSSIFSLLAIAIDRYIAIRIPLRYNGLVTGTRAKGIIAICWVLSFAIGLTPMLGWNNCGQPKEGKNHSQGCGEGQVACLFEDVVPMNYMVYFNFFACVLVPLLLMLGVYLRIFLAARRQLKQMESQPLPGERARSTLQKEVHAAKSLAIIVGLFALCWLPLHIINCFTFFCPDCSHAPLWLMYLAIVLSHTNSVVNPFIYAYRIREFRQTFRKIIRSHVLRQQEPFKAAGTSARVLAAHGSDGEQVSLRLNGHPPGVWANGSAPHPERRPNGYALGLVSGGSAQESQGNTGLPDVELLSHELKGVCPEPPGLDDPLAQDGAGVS

`Cc1c(N2CC(C)CC(c3nc4c5cc(F)cc(F)c5nc(N)n4n3)C2)cnn1C(C)C(C)O` (single isomer, unassigned) [Example 219, (2S,3S or 2R,3R)-3-(4-((3S,5R or 3R,5S)-3-(5-amino-7,9-difluoro-[1,2,4]triazolo[1,5-c]quinazolin-2-yl)-5-methylpiperidin-1-yl)-5-methyl-1H-pyrazol-1-yl)butan-2-ol]: the pIC50 against human A2A receptors was 6.61. The “A2B cAMP % Inh. @10000 nM” value on human A2B receptors is 27% Inh.

Consider `COc1cc(F)cc2c1nc(N)n1nc(C3CC(C)CN(c4cnn(C(C)C(C)O)c4C)C3)nc21` (single isomer, unassigned) [Example 220, (2S,3S or 2R,3R)-3-(4-((3R,5S or 3S,5R)-3-(5-amino-9-fluoro-7-methoxy-[1,2,4]triazolo[1,5-c]quinazolin-2-yl)-5-methylpiperidin-1-yl)-5-methyl-1H-pyrazol-1-yl)butan-2-ol], for which the negative-log IC50 (pIC50) against human A2A receptors was 7.69. The “A2B cAMP % Inh. @10000 nM” value at human A2B receptors amounted to 30% Inh.

On to `COc1cc(F)cc2c1nc(N)n1nc(C3CC(C)CN(c4cnn(C(C)C(C)O)c4C)C3)nc21` (single isomer, unassigned) [Example 221, (2R,3R or 2S,3S)-3-(4-((3R,5S or 3S,5R)-3-(5-amino-9-fluoro-7-methoxy-[1,2,4]triazolo[1,5-c]quinazolin-2-yl)-5-methylpiperidin-1-yl)-5-methyl-1H-pyrazol-1-yl)butan-2-ol], for which the negative logarithm of the IC50 (pIC50) at human A2A receptors was 9.30; against human A2B receptors it was 7.20.

Consider `COc1cc(F)cc2c1nc(N)n1nc(C3CC(C)CN(c4cnn(C(C)C(C)O)c4C)C3)nc21` (single isomer, unassigned) [Example 222, (2R,3R or 2S,3S)-3-(4-((3S,5R or 3R,5S)-3-(5-amino-9-fluoro-7-methoxy-[1,2,4]triazolo[1,5-c]quinazolin-2-yl)-5-methylpiperidin-1-yl)-5-methyl-1H-pyrazol-1-yl)butan-2-ol], for which the figures for the pIC50 against human A2A receptors and on human A2B receptors were 7.46 and 5.48, respectively.

Consider `COc1cc(F)cc2c1nc(N)n1nc(C3CC(C)CN(c4cnn(C(C)C(C)O)c4C)C3)nc21` (single isomer, unassigned) [Example 223, (2S,3S or 2R,3R)-3-(4-((3S,5R or 3R,5S)-3-(5-amino-9-fluoro-7-methoxy-[1,2,4]triazolo[1,5-c]quinazolin-2-yl)-5-methylpiperidin-1-yl)-5-methyl-1H-pyrazol-1-yl)butan-2-ol], for which the negative-log IC50 (pIC50) against human A2A receptors is 9.15; on human A2B receptors, 7.34.

As for `COc1cc2nc(N)n3nc([C@@H]4CC[C@H](C)N(c5cnn([C@@H](C)[C@H](C)O)c5)C4)nc3c2cc1F` (single isomer, unassigned) [Example 228, (2S,3S or 2R,3R)-3-(4-((2S,5R or 2R,5S)-5-(5-amino-9-fluoro-8-methoxy-[1,2,4]triazolo[1,5-c]quinazolin-2-yl)-2-methylpiperidin-1-yl)-1H-pyrazol-1-yl)butan-2-ol], the pIC50 is 9.10 against human A2A receptors and 7.79 at human A2B receptors.

Turning to `COc1cc2nc(N)n3nc([C@H]4CC[C@@H](C)N(c5cnn([C@@H](C)[C@H](C)O)c5)C4)nc3c2cc1F` (single isomer, unassigned) [Example 229, (2S,3S or 2R,3R)-3-(4-((2R,5S or 2S,5R)-5-(5-amino-9-fluoro-8-methoxy-[1,2,4]triazolo[1,5-c]quinazolin-2-yl)-2-methylpiperidin-1-yl)-1H-pyrazol-1-yl)butan-2-ol], the negative-log IC50 (pIC50) against human A2A receptors was 9.00; at human A2B receptors, 8.18.

As to `COc1cc2nc(N)n3nc([C@H]4CC[C@@H](C)N(c5cnn([C@H](C)[C@@H](C)O)c5)C4)nc3c2cc1F` (single isomer, unassigned) [Example 230, (2R,3R or 2S,3S)-3-(4-((2R,5S or 2S,5R)-5-(5-amino-9-fluoro-8-methoxy-[1,2,4]triazolo[1,5-c]quinazolin-2-yl)-2-methylpiperidin-1-yl)-1H-pyrazol-1-yl)butan-2-ol], the pIC50 at human A2A receptors was 7.48; against human A2B receptors it was 6.14.

In the case of `COc1cc2nc(N)n3nc([C@@H]4CC[C@H](C)N(c5cnn([C@H](C)[C@@H](C)O)c5)C4)nc3c2cc1F` (single isomer, unassigned) [Example 231, (2R,3R or 2S,3S)-3-(4-((2S,5R or 2R,5S)-5-(5-amino-9-fluoro-8-methoxy-[1,2,4]triazolo[1,5-c]quinazolin-2-yl)-2-methylpiperidin-1-yl)-1H-pyrazol-1-yl)butan-2-ol], the pIC50 against human A2A receptors was 6.92; against human A2B receptors it was 5.42.

Take `CC(O)C(C)n1cc(N2CC(c3nc4c5cc(F)cc(F)c5nc(N)n4n3)CCC2C)cn1` (single isomer, unassigned) [Example 232, (2S,3S or 2R,3R)-3-(4-((2S,5R or 2R,5S)-5-(5-amino-7,9-difluoro-[1,2,4]triazolo[1,5-c]quinazolin-2-yl)-2-methylpiperidin-1-yl)-1H-pyrazol-1-yl)butan-2-ol]: the negative logarithm of the IC50 (pIC50) at human A2A receptors is 8.89; against human A2B receptors it was 7.90.

`CC(O)C(C)n1cc(N2CC(c3nc4c5cc(F)cc(F)c5nc(N)n4n3)CCC2C)cn1` (single isomer, unassigned) [Example 233, (2R,3R or 2S,3S)-3-(4-((2S,5R or 2R,5S)-5-(5-amino-7,9-difluoro-[1,2,4]triazolo[1,5-c]quinazolin-2-yl)-2-methylpiperidin-1-yl)-1H-pyrazol-1-yl)butan-2-ol]: the negative-log IC50 (pIC50) was 9.15 against human A2A receptors and 8.25 at human A2B receptors.

With `CC(O)C(C)n1cc(N2CC(c3nc4c5cc(F)cc(F)c5nc(N)n4n3)CCC2C)cn1` (single isomer, unassigned) [Example 234, (2R,3R or 2S,3S)-3-(4-((2R,5S or 2S,5R)-5-(5-amino-7,9-difluoro-[1,2,4]triazolo[1,5-c]quinazolin-2-yl)-2-methylpiperidin-1-yl)-1H-pyrazol-1-yl)butan-2-ol], the pIC50 on human A2A receptors was 7.33; against human A2B receptors, 5.92.

As to `CC(O)C(C)n1cc(N2CC(c3nc4c5cc(F)cc(F)c5nc(N)n4n3)CCC2C)cn1` (single isomer, unassigned) [Example 235, (2S,3S or 2R,3R)-3-(4-((2R,5S or 2S,5R)-5-(5-amino-7,9-difluoro-[1,2,4]triazolo[1,5-c]quinazolin-2-yl)-2-methylpiperidin-1-yl)-1H-pyrazol-1-yl)butan-2-ol], the pIC50 was 6.36 against human A2A receptors and 5.35 at human A2B receptors.

As to `COc1cc2nc(N)n3nc(C4CCC(C)N(c5cnn(C(C)C(C)O)c5)C4)nc3c2cc1F` (single isomer, unassigned) [Example 236, (2S,3R or 2R,3S)-3-(4-((2S,5R or 2R,5S)-5-(5-amino-9-fluoro-8-methoxy-[1,2,4]triazolo[1,5-c]quinazolin-2-yl)-2-methylpiperidin-1-yl)-1H-pyrazol-1-yl)butan-2-ol], the negative logarithm of the IC50 (pIC50) on human A2A receptors is 9.00; against human A2B receptors, 8.29.

For the molecule `COc1cc2nc(N)n3nc(C4CCC(C)N(c5cnn(C(C)C(C)O)c5)C4)nc3c2cc1F` (single isomer, unassigned) [Example 237, (2R,3S or 2S,3R)-3-(4-((2S,5R or 2R,5S)-5-(5-amino-9-fluoro-8-methoxy-[1,2,4]triazolo[1,5-c]quinazolin-2-yl)-2-methylpiperidin-1-yl)-1H-pyrazol-1-yl)butan-2-ol], the negative-log IC50 (pIC50) against human A2A receptors is 9.10; against human A2B receptors, 8.06.

With `COc1cc2nc(N)n3nc(C4CCC(C)N(c5cnn(C(C)C(C)O)c5)C4)nc3c2cc1F` (single isomer, unassigned) [Example 238, (2S,3R or 2R,3S)-3-(4-((2R,5S or 2S,5R)-5-(5-amino-9-fluoro-8-methoxy-[1,2,4]triazolo[1,5-c]quinazolin-2-yl)-2-methylpiperidin-1-yl)-1H-pyrazol-1-yl)butan-2-ol], the pIC50 was 7.66 at human A2A receptors and 5.61 at human A2B receptors.

As for `COc1cc2nc(N)n3nc(C4CCC(C)N(c5cnn(C(C)C(C)O)c5)C4)nc3c2cc1F` (single isomer, unassigned) [Example 239, (2R,3S or 2S,3R)-3-(4-((2R,5S or 2S,5R)-5-(5-amino-9-fluoro-8-methoxy-[1,2,4]triazolo[1,5-c]quinazolin-2-yl)-2-methylpiperidin-1-yl)-1H-pyrazol-1-yl)butan-2-ol], the pIC50 against human A2A receptors is 7.12. The “A2B cAMP % Inh. @10000 nM” value on human A2B receptors stood at 10% Inh.

`COc1cc2nc(N)n3nc([C@@H]4CCCN(c5cnn(C(C)(C)C(C)O)c5)C4)nc3c2cc1F` (single isomer, unassigned) [Example 242, (R or S)-3-(4-((R)-3-(5-amino-9-fluoro-8-methoxy-[1,2,4]triazolo[1,5-c]quinazolin-2-yl)piperidin-1-yl)-1H-pyrazol-1-yl)-3-methylbutan-2-ol]: the figures for the pIC50 against human A2A receptors and on human A2B receptors were 8.70 and 7.46, respectively.

Regarding `COc1cc2nc(N)n3nc([C@@H]4CCCN(c5cnn(C(C)(C)C(C)O)c5)C4)nc3c2cc1F` (single isomer, unassigned) [Example 243, (S or R)-3-(4-((R)-3-(5-amino-9-fluoro-8-methoxy-[1,2,4]triazolo[1,5-c]quinazolin-2-yl)piperidin-1-yl)-1H-pyrazol-1-yl)-3-methylbutan-2-ol], the pIC50 is 8.59 against human A2A receptors and 7.29 against human A2B receptors.

Consider `COc1cc(F)cc2c1nc(N)n1nc([C@@H]3CCCN(c4cnn(C(C)(C)C(C)O)c4)C3)nc21` (single isomer, unassigned) [Example 244, (R or S)-3-(4-((R)-3-(5-amino-9-fluoro-7 methoxy-[1,2,4]triazolo[1,5-c]quinazolin-2-yl)piperidin-1-yl)-1H-pyrazol-1-yl)-3-methylbutan-2-ol], for which the negative-log IC50 (pIC50) against human A2A receptors is 9.05; against human A2B receptors, 7.73.
